We go through six compounds from paper PMC4829233, “Identification of Novel Chemical Scaffolds Inhibiting Trypanothione Synthetase from Pathogenic Trypanosomatids” (PLoS Neglected Tropical Diseases, 2016).

Where “and” joins values, the source holds several entries; their conditions need not be identical. Equal entries are not always repeated. Where two headings read alike, the source gives them in different places.

A word on the EC50: it is the concentration needed to bring the measured effect to its halfway point. As a reminder, the IC50 is the concentration at which inhibition is half-maximal. For orientation: inhibition means the drop in the measured response relative to a control, in per cent. As a reminder, the Km is the substrate concentration at which the rate is half of its maximum.

Series [1] deals with Leishmania infantum promastigotes. Set-up: method as in PMID 24853758. As to conditions: ref [20], read-out: L. infantum EC50; cited from earlier work.
Series [2] relates to LiTryS. On the set-up: method as in PMID 24853758. The settings on record: ref [20]; cited from earlier work.
Series [3] concerns the target LiTryS (Leishmania infantum trypanothione synthetase) (Leishmania infantum, UniProt A4I2Z3). Briefly: biochemical. It is filed as biochemical.
Series [4] concerns the target TbTryS (Trypanosoma brucei trypanothione synthetase) (Trypanosoma brucei brucei, UniProt Q8IEX1). Nature of the series: biochemical.
Series [5] addresses TcTryS (Trypanosoma cruzi trypanothione synthetase) (Trypanosoma cruzi, UniProt Q9GT49). Briefly: biochemical. As to conditions: read-out: % TcTryS inhibition ± 2σn-1. It is filed as biochemical.
Series [6] has as its target T1, T. b. brucei trypanothione synthetase (TbTryS) (Trypanosoma brucei brucei, UniProt Q8IEX1). Briefly: biochemical.
The target of series [7] is L. infantum trypanothione synthetase (LiTryS) (Leishmania infantum, UniProt A4I2Z3). Briefly: biochemical. The class given is biochemical.
L. infantum trypanothione synthetase (LiTryS), sequence (A4I2Z3 entry or part of it): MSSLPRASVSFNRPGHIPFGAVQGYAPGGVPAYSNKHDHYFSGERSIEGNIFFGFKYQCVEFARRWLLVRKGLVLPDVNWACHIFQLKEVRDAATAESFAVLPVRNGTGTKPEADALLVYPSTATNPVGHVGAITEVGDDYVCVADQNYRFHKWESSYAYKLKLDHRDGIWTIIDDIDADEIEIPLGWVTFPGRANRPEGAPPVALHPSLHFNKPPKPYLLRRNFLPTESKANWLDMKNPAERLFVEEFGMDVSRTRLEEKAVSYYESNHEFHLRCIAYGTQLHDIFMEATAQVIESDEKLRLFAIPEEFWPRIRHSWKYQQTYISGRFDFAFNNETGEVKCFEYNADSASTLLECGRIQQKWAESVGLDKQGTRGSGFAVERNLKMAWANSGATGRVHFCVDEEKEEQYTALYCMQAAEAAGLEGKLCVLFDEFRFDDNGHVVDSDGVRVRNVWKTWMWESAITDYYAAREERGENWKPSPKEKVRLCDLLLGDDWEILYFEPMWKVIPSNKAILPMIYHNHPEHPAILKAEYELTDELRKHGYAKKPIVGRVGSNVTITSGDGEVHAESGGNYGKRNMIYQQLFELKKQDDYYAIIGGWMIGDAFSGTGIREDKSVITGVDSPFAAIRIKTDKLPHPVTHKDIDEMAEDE
Series [8] has as its target CfGspS. The settings on record: ref [64]; cited from earlier work.
In series [9] the target is T2, T. cruzi trypanothione synthetase (TcTryS) (Trypanosoma cruzi, UniProt Q9GT49).
T2 sequence (Q9GT49 whole entry): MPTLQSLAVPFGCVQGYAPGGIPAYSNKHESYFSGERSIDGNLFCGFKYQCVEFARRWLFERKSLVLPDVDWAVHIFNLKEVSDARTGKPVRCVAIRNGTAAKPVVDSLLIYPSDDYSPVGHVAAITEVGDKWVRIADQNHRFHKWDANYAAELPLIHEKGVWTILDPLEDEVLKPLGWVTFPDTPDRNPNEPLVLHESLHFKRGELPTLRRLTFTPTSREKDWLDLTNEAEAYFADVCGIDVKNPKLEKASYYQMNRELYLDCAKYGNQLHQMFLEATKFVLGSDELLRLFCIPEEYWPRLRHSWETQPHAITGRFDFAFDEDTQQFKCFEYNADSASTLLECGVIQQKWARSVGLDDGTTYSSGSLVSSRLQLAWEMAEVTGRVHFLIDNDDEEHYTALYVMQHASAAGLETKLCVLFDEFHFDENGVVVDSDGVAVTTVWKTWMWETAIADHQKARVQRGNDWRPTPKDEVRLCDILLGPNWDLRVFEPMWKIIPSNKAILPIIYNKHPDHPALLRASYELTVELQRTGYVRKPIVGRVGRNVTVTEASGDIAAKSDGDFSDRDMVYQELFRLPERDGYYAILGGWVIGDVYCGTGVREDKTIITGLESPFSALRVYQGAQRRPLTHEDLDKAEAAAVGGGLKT
In series [10] the target is T. cruzi trypanothione synthetase (TcTryS). The settings on record: cited from earlier work.
In series [11] the test system is L. major trypanothione synthetase. On the set-up: method as in PMID 15610825. As to conditions: PK/LDH assay, ref [26], cited from earlier work.
In series [12] the target is T1, T. b. brucei trypanothione synthetase (TbTryS). As to conditions: cited from earlier work.
The subject of series [13] is C. fasciculata trypanothione synthetase (CfTryS). Set-up: method as in PMID 15537651. As to conditions: ref [23], cited from earlier work.
The target in series [14] is T2, T. cruzi trypanothione synthetase (TcTryS). Nature of the series: biochemical. The settings on record: apparent Ki GSH, TcTryS strain Tulahuen 0 (His-tagged), LDH/PK assay; substrate inhibition.
Series [15] has as its system NCCCCNCCCN
Nature of the series: purified protein, by the assay type. As to conditions: other: LDH/PK assay, saturating co-substrates; pH 7.4.

For series [16], the system named is Leishmania infantum promastigotes. Nature of the series: Proliferation/cytotoxicity assay, L. infantum promastigotes. It is filed as cell-based. The settings on record: 24 h, promastigotes. On the procedure: All assays were performed in duplicates or triplicates.
Leishmania infantum promastigotes were cultured at 28 °C in RPMI 1640 Glutamax supplemented with 10% (v/v) FCS, 10 U ml^-1 penicillin, 10 µg ml^-1 streptomycin and 25 mM HEPES sodium salt pH 7.4. […] Twenty four hours later the number of living parasites was estimated by cell counting under the light microscope using a Neubauer chamber and viability calculated as percentage relative to cultures incubated with the vehicle alone.

For series [17], the system named is L. infantum promastigotes. Nature of the series: Analysis of intracellular thiols. The class given is cell-based, Leishmania infantum. As for the experimental part: The method is a modified version of that described in [62]. Briefly, L. infantum promastigotes or bloodstream T. b. brucei (WT and RNAi-TryS cell lines) treated or not with compounds (MOL2008 or EAP1-47, respectively) for 24 h were harvested by centrifugation (2000g, 10 min at 4°C), washed twice with PBS and resuspended at a density of 10^8 cells/0.1 mL of 40 mM Hepes pH 8.0 and 2 mM mono-bromobimane in methanol. After incubation at 70°C for 3 minutes, the samples were cooled on ice, then added of 100 μL 4 M methanesulfonic acid (adjusted to pH 1.5 with LiOH) and incubated overnight at 4°C. The supernatant containing the derivatized low molecular mass thiols was centrifuged at 13000g 40 min at 0°C.

Series [18] concerns bloodstream Trypanosoma brucei brucei. Nature of the series: Proliferation/cytotoxicity assay, infective T. b. brucei. It is filed as cell-based. As to conditions: 24 h, read-out: T. b. Brucei EC50.
The subject of series [19] is TryS from C. fasciculata. Set-up: method as in earlier work. The settings on record: ref [10]; cited from earlier work.
Series [20] relates to TbTryS. As to conditions: HTS leaders; ref [17], [18]; cited from earlier work.
The mark [21] stands for this setting: n = 4, read-out: LiTryS IC50, representative dose-response plot.

TbTryS (Trypanosoma brucei trypanothione synthetase), sequence (Q8IEX1 1-627): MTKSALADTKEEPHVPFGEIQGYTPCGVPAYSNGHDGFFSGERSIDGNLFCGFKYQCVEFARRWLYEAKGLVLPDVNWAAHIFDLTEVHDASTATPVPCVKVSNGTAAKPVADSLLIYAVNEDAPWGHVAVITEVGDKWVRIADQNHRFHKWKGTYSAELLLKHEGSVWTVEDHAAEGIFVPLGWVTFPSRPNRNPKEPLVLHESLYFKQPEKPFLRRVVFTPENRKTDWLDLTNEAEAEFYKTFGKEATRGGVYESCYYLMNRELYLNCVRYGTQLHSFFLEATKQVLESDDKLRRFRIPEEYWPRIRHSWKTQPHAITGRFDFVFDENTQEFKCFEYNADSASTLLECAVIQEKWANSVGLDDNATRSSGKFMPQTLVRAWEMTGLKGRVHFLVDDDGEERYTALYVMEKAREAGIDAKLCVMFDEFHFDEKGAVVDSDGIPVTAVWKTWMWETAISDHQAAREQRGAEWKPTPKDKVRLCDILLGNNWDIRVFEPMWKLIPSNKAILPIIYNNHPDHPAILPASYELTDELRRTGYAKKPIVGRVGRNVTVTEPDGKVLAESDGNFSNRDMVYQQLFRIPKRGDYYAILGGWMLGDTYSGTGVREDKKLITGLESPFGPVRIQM
T1 sequence (Q8IEX1 entry or part of it): as the sequence (Q8IEX1 1-627) above
LiTryS (Leishmania infantum trypanothione synthetase), sequence (A4I2Z3 1-652): as the sequence (A4I2Z3 entry or part of it) above
TcTryS (Trypanosoma cruzi trypanothione synthetase), sequence (Q9GT49 whole entry): as the sequence (Q9GT49 whole entry) above

On to `CNCCNC(=O)CN1C(=O)Cc2c([nH]c3cc(C(F)(F)F)ccc23)-c2ccccc21` [FS-554], for which the concentration for a half-maximal effect (EC50) in [1] was 112.3 ± 1.1 µM. For the same compound, the IC50 is 0.35 µM in series [2], 0.32 ± 0.73 µM in [3] (setting [21]), 0.35 µM in series [3] (read-out: LiTryS IC50) and roughly 75 µM in series [4]. The “slope plot, LiTryS, representative dose-response plot” value in series [3] was determined as 0.37 ± 0.03. Also, the inhibition at 75 µM in series [4] is roughly 50%. Moreover, in series [5], the inhibition at 30 µM is roughly 50%.
Turning to `Nc1ncnc2c1ncn2[C@@H]1O[C@H](COP(=O)(O)OP(=O)(O)O)[C@@H](O)[C@H]1O` [ADP], the Ki was 40 ± 5 µM in series [6] (end-point BIOMOL GREEN assay, competes with ATP, read-out: apparent Ki ADP, His-tagged TbTryS 427 (MITat1.4)); 90 ± 8 µM in [7] (end-point BIOMOL GREEN assay, competes with ATP, read-out: apparent Ki ADP, LiTryS JPCM5 (His-tagged)); 80 µM in series [8]; 60 ± 6 µM in [9] (read-out: apparent Ki ADP, TcTryS strain Tulahuen 0 (His-tagged), end-point BIOMOL GREEN assay, competes with ATP).
Take `N[C@@H](CCC(=O)N[C@@H](CS)C(=O)NCC(=O)O)C(=O)O` [GSH, glutathione]: the “apparent Ki/KM GSH, T. b. brucei TryS” value in series [6] is recorded as 1.8. Also, the Ki was 242 µM and 254 µM in series [6] (apparent Ki GSH, His-tagged TbTryS 427 (MITat1.4), LDH/PK assay, substrate inhibition); 1200 ± 100 µM in series [10] (read-out: apparent Ki GSH, TcTryS strain Silvio X10 clone 7, PK/LDH assay, ref [25]); 1000 ± 80 µM in series [11] (read-out: apparent Ki GSH, L. major Friedlin TryS); 699 ± 75 µM in [7]; 36.5 to 143 µM in series [12] (read-out: Ki GSH reported for untagged TbTryS by different laboratories, ref [24], [27]); 143 ± 20 µM in [12] (read-out: apparent Ki GSH, TbTryS strain 427, cell line 449, PK/LDH assay, ref [24]). Besides, the Ki was 36.5 ± 6.7 µM in series [12] (read-out: apparent Ki GSH, untagged TbTryS 427 (MITat1.4), PK/LDH coupled assay, ref [27]); 55 ± 6 µM in [12] (read-out: apparent Ki GSH, untagged TbTryS 427 (MITat1.4), end-point assay, ref [18]); 1600 µM and 1690 µM in series [14]. Further, the “Ki GSH, TcTryS strain Ninoa” value in series [10] (No = lack of GSH inhibition at 4.5 mM, ref [22]) is “No^f”. For the same compound, the Km in series [10] (PK/LDH assay, 37 °C, ref [22], read-out: apparent KM, TcTryS strain Ninoa) is 760 ± 210 µM; in series [10] (PK/LDH assay, ref [25], read-out: apparent KM, TcTryS strain Silvio X10 clone 7), 570 ± 50 µM; in series [11] (read-out: apparent KM, L. major Friedlin TryS) it was 89 ± 7 µM; in series [12] (read-out: KM reported for untagged TbTryS by different laboratories, ref [24], [27]), 23.8 to 56.2 µM; in series [12] (read-out: apparent KM, TbTryS strain 427, cell line 449, PK/LDH assay, ref [24]), 34 ± 4 µM; in [12] (read-out: apparent KM, untagged TbTryS 427 (MITat1.4), PK/LDH coupled assay, ref [27]), 56.2 ± 10.7 µM. Also, the Km in series [12] (read-out: apparent KM, untagged TbTryS 427 (MITat1.4), end-point assay, ref [18]) was 23.8 ± 2.3 µM; in series [13] (PK/LDH assay, read-out: apparent KM, C. fasciculata TryS (unknown strain)), 1180 µM. Moreover, in series [7], the “apparent Ki/KM GSH, L. infantum TryS” value is reported as 4.1. Also, the “Ki GSH, C. fasciculata TryS (unknown strain)” value in [13] was “Yes”. In addition, the “apparent Ki/KM GSH, T. cruzi TryS” value in series [9] amounted to 13.0.
As to “T. cruzi trypanothione synthetase (TcTryS) (Trypanosoma cruzi strain CL Brener)”, in [15], the Km is 685 ± 105 µM and 702 ± 70 µM.
`CNCCNC(=O)CN1C(=O)Cc2c([nH]c3ccc(Br)cc23)-c2ccc(Cl)cc21` [MOL2008]: the EC50 in [16] (Leishmania infantum) was found to be 12 µM; in [16] it was 12.6 ± 1.6 µM; in series [18] it was 4.3 ± 0.7 µM. Also, the “decrease of T(SH)2 content” value in series [17] is no less than 90%. Also, the IC50 in [19] is 0.03 µM; in [3] (setting [21]), 0.14 ± 0.03 µM; in series [3] (read-out: LiTryS IC50) it was less than 1 µM; in series [4], 30 µM and ~30 µM and ≤ 30 µM. Further, the “slope plot, LiTryS, representative dose-response plot” value in [3] is listed as 0.38 ± 0.03. The inhibition at 30 µM in series [4] (read-out: % TbTryS inhibition ± 2σn-1) and in series [5] was roughly 50% throughout.
For the compound `CN(C)CCCNC(=O)Cn1nc(-c2cccc(F)c2)c2ccccc21` [DDU86439], the IC50 in [20] was 0.045 µM.
